Experimental data from ChEMBL document CHEMBL1153358, “Amide analogs of antifungal dioxane-triazole derivatives: synthesis and in vitro activities” (Bioorg Med Chem Lett, 2009).
≈ marks a conversion by molar mass, not a printed value.

Tests used:
Assay type in all cases: functional
Candida albicans [1] = test: Antifungal activity against Candida albicans SANK 51486
Candida albicans [2] = test: Antifungal activity against fluconazole-resistant Candida albicans TIMM3164
Nakaseomyces glabratus = test: Antifungal activity against Candida glabrata ATCC 90030
Candida tropicalis = test: Antifungal activity against Candida tropicalis ATCC 750
Cryptococcus neoformans = test: Antifungal activity against Cryptococcus neoformans TIMM 1855
Aspergillus fumigatus [3] = test: Antifungal activity against Aspergillus fumigatus SANK 10569
Aspergillus flavus = test: Antifungal activity against Aspergillus flavus SANK 18497
Candida albicans [4] = test: Antifungal activity against Candida albicans ATCC 24433
Candida albicans [5] = test: Antifungal activity against Candida albicans ATCC 64550
Candida parapsilosis = test: Antifungal activity against Candida parapsilosis ATCC 90018; conditions: Lodderomyces parapsilosis
Pichia kudriavzevii = test: Antifungal activity against Candida krusei ATCC 6258
Aspergillus fumigatus [6] = test: Antifungal activity against Aspergillus fumigatus ATCC 26430

| SMILES | MIC (Candida albicans [1]) [µg/mL] | MIC (Candida albicans [2]) [µg/mL] | MIC (Nakaseomyces glabratus) [µg/mL] | MIC (Candida tropicalis) [µg/mL] | MIC (Cryptococcus neoformans) [µg/mL] | MIC (Aspergillus fumigatus [3]) [µg/mL] | MIC (Aspergillus flavus) [µg/mL] | MIC (Candida albicans [4]) [µg/mL] | MIC (Candida albicans [5]) [µg/mL] | MIC (Candida parapsilosis) [µg/mL] | MIC (Pichia kudriavzevii) [µg/mL] | MIC (Aspergillus fumigatus [6]) [µg/mL] |
| --- | --- | --- | --- | --- | --- | --- | --- | --- | --- | --- | --- | --- |
| C[C@@H](S[C@H]1CO[C@H](/C=C/C(=O)Nc2ccc(F)cc2)OC1)[C@](O)(Cn1cncn1)c1ccc(F)cc1F | < 0.008 | 0.125 (≈ 0.234 µM) | 4 (≈ 7.48 µM) | 0.125 (≈ 0.234 µM) | 0.125 (≈ 0.234 µM) | 0.5 (≈ 0.935 µM) | 4 (≈ 7.48 µM) |  |  |  |  |  |
| C[C@@H](S[C@H]1CO[C@H](c2ccc(C(=O)Nc3ccc(Br)cc3)cc2)OC1)[C@](O)(Cn1cncn1)c1ccc(F)cc1F | ≤ 0.008 | 0.016 (≈ 0.0248 µM) | > 4 | ≤ 0.008 | 0.016 (≈ 0.0248 µM) | 0.063 (≈ 0.0976 µM) | 0.125 (≈ 0.194 µM) |  |  |  |  |  |
| C[C@@H](S[C@H]1CO[C@H](c2ccc(C(=O)Nc3ccc(Cl)cc3)cc2)OC1)[C@](O)(Cn1cncn1)c1ccc(F)cc1F | ≤ 0.008 | ≤ 0.008 | > 4 | 0.016 (≈ 0.0266 µM) | 0.016 (≈ 0.0266 µM) | 0.063 (≈ 0.105 µM) | 0.125 (≈ 0.208 µM) |  |  |  |  |  |
| C[C@@H](S[C@H]1CO[C@H](c2ccc(C(=O)Nc3ccc(C#N)cc3)cc2F)OC1)[C@](O)(Cn1cncn1)c1ccc(F)cc1F | ≤ 0.008 | 0.031 (≈ 0.0509 µM) | 2 (≈ 3.28 µM) | ≤ 0.008 | 0.031 (≈ 0.0509 µM) | 0.063 (≈ 0.103 µM) | 0.25 (≈ 0.41 µM) |  |  |  |  |  |
| C[C@@H](S[C@H]1CO[C@H](/C=C/C(=O)c2ccc(F)cc2)OC1)[C@](O)(Cn1cncn1)c1ccc(F)cc1F.O=C(O)/C=C\C(=O)O | ≤ 0.008 | 0.125 | 1 | 0.5 | 0.125 | 1 | > 4 |  |  |  |  |  |
| C[C@@H](S[C@H]1CO[C@H](c2ccc3cc(C(=O)Nc4ccc(C#N)cc4)ccc3c2)OC1)[C@](O)(Cn1cncn1)c1ccc(F)cc1F | ≤ 0.008 | 0.031 (≈ 0.0483 µM) | > 4 | 0.016 (≈ 0.0249 µM) | 0.063 (≈ 0.0982 µM) | 0.063 (≈ 0.0982 µM) | 0.25 (≈ 0.39 µM) |  |  |  |  |  |
| C[C@@H](S[C@H]1CO[C@H](c2ccc(C(=O)Nc3ccc(OCC(F)(F)C(F)F)cc3)cc2)OC1)[C@](O)(Cn1cncn1)c1ccc(F)cc1F | 0.016 (≈ 0.023 µM) | 0.031 (≈ 0.0445 µM) | > 4 | 0.125 (≈ 0.179 µM) | 0.063 (≈ 0.0904 µM) | 0.125 (≈ 0.179 µM) | 0.5 (≈ 0.718 µM) |  |  |  |  |  |
| C[C@@H](S[C@H]1CO[C@H](c2ccc(C(=O)Nc3ccc(F)cc3)cc2)OC1)[C@](O)(Cn1cncn1)c1ccc(F)cc1F | ≤ 0.008 | 0.016 (≈ 0.0274 µM) | 2 (≈ 3.42 µM) | 0.016 (≈ 0.0274 µM) | 0.031 (≈ 0.053 µM) | 0.125 (≈ 0.214 µM) | 0.25 (≈ 0.428 µM) |  |  |  |  |  |
| C[C@@H](S[C@H]1CO[C@H](/C=C/S(=O)(=O)c2ccc(F)cc2)OC1)[C@](O)(Cn1cncn1)c1ccc(F)cc1F.O=C(O)/C=C\C(=O)O | ≤ 0.008 | 0.125 | 2 | 0.5 | 0.125 | 4 | > 4 |  |  |  |  |  |
| C[C@@H](S[C@H]1CO[C@H](c2ccc(C(=O)Nc3ccc(C#N)c(Cl)c3)cc2)OC1)[C@](O)(Cn1cncn1)c1ccc(F)cc1F | ≤ 0.008 | 0.016 (≈ 0.0256 µM) | 1 (≈ 1.6 µM) | 0.063 (≈ 0.101 µM) | 0.031 (≈ 0.0495 µM) | 0.125 (≈ 0.2 µM) | 0.25 (≈ 0.399 µM) |  |  |  |  |  |
| C[C@@H](S[C@H]1CO[C@H](c2ccc(C(=O)Nc3ccc(C#N)cc3F)cc2)OC1)[C@](O)(Cn1cncn1)c1ccc(F)cc1F | ≤ 0.008 | 0.016 (≈ 0.0262 µM) | > 4 | 0.031 (≈ 0.0509 µM) | 0.063 (≈ 0.103 µM) | 0.031 (≈ 0.0509 µM) | 0.125 (≈ 0.205 µM) |  |  |  |  |  |
| CCC(C)n1ncn(-c2ccc(N3CCN(c4ccc(OCC5COC(Cn6cncn6)(c6ccc(Cl)cc6Cl)O5)cc4)CC3)cc2)c1=O (stereo unspecified) [ITRACONAZOLE] | 0.031 (≈ 0.0439 µM) | 0.25 (≈ 0.354 µM) | 1 (≈ 1.42 µM) | 0.5 (≈ 0.709 µM) | 0.25 (≈ 0.354 µM) | 0.25 (≈ 0.354 µM) | 0.5 (≈ 0.709 µM) | 0.125 (≈ 0.177 µM) | 1 (≈ 1.42 µM) | 0.125 (≈ 0.177 µM) | 0.5 (≈ 0.709 µM) | 0.25 (≈ 0.354 µM) |
| C[C@@H](S[C@H]1CO[C@H](c2ccc(C(=O)Nc3ccc(O)cc3)cc2)OC1)[C@](O)(Cn1cncn1)c1ccc(F)cc1F | 0.016 (≈ 0.0275 µM) | 0.063 (≈ 0.108 µM) | > 4 | 0.25 (≈ 0.429 µM) | 0.25 (≈ 0.429 µM) | 0.5 (≈ 0.858 µM) | 1 (≈ 1.72 µM) |  |  |  |  |  |
